These results are taken from publication PMC6397219, “Rapid one-step ^18F-radiolabeling of biomolecules in aqueous media by organophosphine fluoride acceptors” (Nature Communications, 2019).

Series [1] deals with U87MG gliomablastoma. It is filed as in vivo, mouse. Particulars: for Tumor-SUVbw: unblocked, mean n=3. As for the experimental part:
(§1) 37 °C in a humidified atmosphere containing 5% CO 2 in Dulbecco’s Modified Eagle Medium (DMEM, high glucose) supplemented with 10% fetal bovine serum. Each male BALB/ c nude mouse wa s injected subcutane ously in the right foreleg with about 2 × 10^6 U87MG cells. At 4-5 week after inoculation, when the tumors reached about 0.5 cm in diameter, the mice were used for PET/CT imaging studies.
(§2) MicroPET/CT imaging with 18F-DBP OF-c(RGDyk)
Glioblastoma tumor mice were employed in microPET/CT imaging (n = 3) with 18F-DBPOF-c(RGDyk). Anesthetization was con ducted with 2.5% isoflurane during preparation and 1.5% during scans. 10 min dynamic microPET-CT scans were acquired by an Inveon microPET/CT (Siemens, Germany) 20 min post i.v. injection of 18F-DBPOF-c(RGDyk) (100 µL, 100 µCi). Reconstruction of PET images was performed with 3D OPMAP algorithm. […]
39~2. 51 times higher than blocked mice . The tumor was clearly observable whereas blocked mice had much less tumor uptake as indicated in Supplementary Figure 13. […]

The nature of series [2]: Log D of 18F-DBPOF-c(RGDyk), 1-octanol/PBS. It is filed as physicochemical. Particulars: shake-flask, pre-saturated 1-octanol/PBS pH 7.4; 2.0 mL each; four tubes; shaken 10 min, centrifuged 5 min; γ counter, decay-corrected. How it is done: = 7.4) system to estimate the hydrophobicity changes between c(RGDyk) and 18F-DBP OF-c(RGDyk) that may influence biological function of c(RGDyk).
1-Octanol (2.0 mL) and phosphate buffer (2.0 mL) were pipetted into four 12 mL test tubes containing […] of radiotracer. The test tubes were stoppered, mechanic ally shaken for 10 min, and centrifuged (5 min). From each tube, approximately 0.5 mL of buffer was transferred into a pre -weighed test tube for counting. The remaining buffer was discarded and approximately 0.5 mL of octanol phase was also transferred int o a separate pre-weighed test tube. The amount of radioactivity in each tube was measured by a γ counter and corrected for decay. Accurate volumes of each counted phase were determined by weight differences and known densities. The partition coefficient was calculated using Supplementary Equation 1:
Log D = Counts/m L in buffer = -0.59 ± 0.09 1 […]
Photosensitizers were added at concentrations 0, 0.01, 0.05, 0.1, 0.5, 1 and 5 mM. The cell cytotoxic effect on the U87MG cells were determined using the CCK8 assay.
After 12 h and 24 h of incubation after the treatment we added 10 µL of CCK8 and incubated the cells for another 1 h at 37 °C and in 5% CO2. The measurement of absorbance was carried out on a 96-well microplate reader Synergy HT at 450 nm. […]

For series [3], the system named is U87MG gliomablastoma. The format is in vivo, mouse. The conditions noted are these: 60 min dynamic images; n = 3. As for the experimental part:
as §1, §2
Glioblastoma tumor mice were employed in microPET/CT imaging (n = 3) with 18F-DBPOF-c(RGDyk). Anesthetization was con ducted with 2.5% isoflurane during preparation and 1.5% during scans. 10 min dynamic microPET-CT scans were acquired by an Inveon microPET/CT (Siemens, Germany) 20 min post i.v. injection of 18F-DBPOF-c(RGDyk) (100 µL, 100 µCi). Reconstruction of PET images was performed with 3D OPMAP algorithm.
In order to study the specific tumor uptake, mice were pre-blocked by injection of 10 µmol DBPOF-c(RGDyk) 30 min prior to injection of 18F-DBPOF-c(RGDyk) as the control group. Then 60 min dynamic images were acquired to provide a control group […]
while the average tumor uptake SUV in the blocked mice was only 0.32~1.12. The tumor uptake of unblocked mice is 1. 39~2. 51 times higher than blocked mice . The tumor was clearly observable whereas blocked mice had much less tumor uptake as indicated in Supplementary Figure 13. […]

Like-named read-outs stand apart in the source and are kept apart here.

In general, Log D refers to lipophilicity at a set pH, counting ionised and neutral species.

With “^18F-DBPOF-c(RGDyk) (head to tail) [18F-labeled peptide ligand, targets the integrin αvβ3 receptor of the U87MG cell]”, the Tumor-SUVbw is 0.5941 in the series on U87MG gliomablastoma [1] (21 min); 0.4485 in the series with U87MG gliomablastoma [1] (22 min); 0.7452 in the series on U87MG gliomablastoma [1] (23 min); 0.761 in the series with U87MG gliomablastoma [1] (24 min); 0.4755 in the series on U87MG gliomablastoma [1] (25 min); 0.5271 in the series on U87MG gliomablastoma [1] (26 min). Moreover, the Tumor-SUVbw with U87MG gliomablastoma [1] (27 min) worked out at 0.4212; with U87MG gliomablastoma [1] (28 min), 0.5137; with U87MG gliomablastoma [1] (29 min), 0.5036; with U87MG gliomablastoma [1] (30 min), 0.6269. Also, the “uptake, standardized uptake value (SUV) in U87MG gliomablastoma” value in the series with U87MG gliomablastoma [1] (microPET/CT, 100 µCi i.v., dynamic scan from 20 min post injection) is reported as 0.76. Moreover, the “target to non-target ratio” value with U87MG gliomablastoma [1] (microPET/CT, U87MG gliomablastoma) is 2.4. Further, the pH-dependent lipophilicity (Log D) in series [2] was -0.59 ± 0.09. Further, the “average tumor uptake SUV in the blocked mice” value in the series on U87MG gliomablastoma [3] is listed as 0.32~1.12.
